Target: T1, TESK2 (Homo sapiens, UniProt Q96S53)
T1 construct: purchased Thermo Fisher Scientific (Life Technologies) SelectScreen
Assay: SelectScreen LanthaScreen
Type: binding
Conditions: read-out: % displacement
Procedure, shortened: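 SelectScreen broad panel; activity (Z'LYTE, Adapta) plus binding formats. ATP: Km app for CSF1R Z'LYTE; 10 for CAMK1 Adapta. Readout = % per kinase.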

T1 sequence (Q96S53 whole entry): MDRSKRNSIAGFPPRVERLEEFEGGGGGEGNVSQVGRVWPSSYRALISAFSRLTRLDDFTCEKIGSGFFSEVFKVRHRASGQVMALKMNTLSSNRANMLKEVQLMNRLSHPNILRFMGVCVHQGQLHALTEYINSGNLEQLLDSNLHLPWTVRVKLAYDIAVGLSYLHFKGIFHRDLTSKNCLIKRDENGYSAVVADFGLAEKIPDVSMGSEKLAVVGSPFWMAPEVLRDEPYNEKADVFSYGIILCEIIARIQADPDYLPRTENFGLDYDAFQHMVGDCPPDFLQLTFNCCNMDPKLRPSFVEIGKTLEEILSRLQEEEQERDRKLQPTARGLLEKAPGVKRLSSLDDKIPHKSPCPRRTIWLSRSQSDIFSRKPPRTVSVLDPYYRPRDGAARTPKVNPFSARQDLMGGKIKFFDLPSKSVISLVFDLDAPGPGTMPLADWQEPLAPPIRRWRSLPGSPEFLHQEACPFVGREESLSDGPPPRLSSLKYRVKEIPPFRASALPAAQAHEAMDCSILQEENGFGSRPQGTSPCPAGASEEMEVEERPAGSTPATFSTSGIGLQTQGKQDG

Compound: CN(C(=O)CN1CCOCC1)c1ccc2sc3c(-c4cccc5c(=O)cc(N6CC7CCC(C6)O7)oc45)cccc3c2c1 [NU5455]
- inhibition at 1 µM: 2.7%

Source: PMC6934184, “Selective DNA-PKcs inhibition extends the therapeutic index of localized radiotherapy and chemotherapy” (The Journal of Clinical Investigation, 2019)
